Test results taken from ChEMBL document CHEMBL5584244, “Discovery of novel pyrrolo[2,1-c][1,4]benzodiazepine-3,11-dione (PBD) derivatives as selective HDAC6 inhibitors for the efficient treatment of idiopathic pulmonary fibrosis (IPF) in vitro and in vivo” (Eur J Med Chem, 2024).
Calls of active or inactive are those of the source. No cut-off for these calls is given here.

What was measured:
HELF = assay: Antifibrotic activity against TGF-beta1-induced HELF cells assessed as reduction in viability after 48 hrs by MTT assay; format: functional, cell-based; conditions: Homo sapiens, dose 2.5-10 µM
Mus musculus [1] = assay: Anti-pulmonary fibrosis activity in bleomycin-induced C57BL/6 mouse model of pulmonary fibrosis assessed as decrease in collagen level in lung at 50 to 100 mg/kg, ip for 3 weeks by Masson trichrome staining based microscopic analysis; format: functional, organism-based; conditions: dose 50-100 mg/kg
Histone deacetylase 11 = biological target: T1, Histone deacetylase 11 (Homo sapiens, UniProt Q96DB2); assay: Inhibition of recombinant human full length HDAC11 using Boc-Lys (Tfa)-AMC as substrate incubated for 120 mins by fluorescence analysis
T1 sequence (Q96DB2 whole entry): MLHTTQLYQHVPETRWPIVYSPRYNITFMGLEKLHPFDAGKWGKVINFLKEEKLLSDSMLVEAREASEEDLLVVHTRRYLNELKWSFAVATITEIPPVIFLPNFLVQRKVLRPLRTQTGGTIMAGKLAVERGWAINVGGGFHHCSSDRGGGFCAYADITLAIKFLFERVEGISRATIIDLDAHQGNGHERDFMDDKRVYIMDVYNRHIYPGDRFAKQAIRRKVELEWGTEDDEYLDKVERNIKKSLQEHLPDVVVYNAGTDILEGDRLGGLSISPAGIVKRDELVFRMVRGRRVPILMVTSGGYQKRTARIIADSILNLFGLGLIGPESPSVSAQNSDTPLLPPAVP

[2] = biological target: T2, Protein deacetylase HDAC6 (Homo sapiens, UniProt Q9UBN7); assay: Inhibition of recombinant human full length HDAC6 using Boc-Lys (Ac)-AMC as substrate incubated for 120 mins by fluorescence analysis
T2 sequence (Q9UBN7 whole entry): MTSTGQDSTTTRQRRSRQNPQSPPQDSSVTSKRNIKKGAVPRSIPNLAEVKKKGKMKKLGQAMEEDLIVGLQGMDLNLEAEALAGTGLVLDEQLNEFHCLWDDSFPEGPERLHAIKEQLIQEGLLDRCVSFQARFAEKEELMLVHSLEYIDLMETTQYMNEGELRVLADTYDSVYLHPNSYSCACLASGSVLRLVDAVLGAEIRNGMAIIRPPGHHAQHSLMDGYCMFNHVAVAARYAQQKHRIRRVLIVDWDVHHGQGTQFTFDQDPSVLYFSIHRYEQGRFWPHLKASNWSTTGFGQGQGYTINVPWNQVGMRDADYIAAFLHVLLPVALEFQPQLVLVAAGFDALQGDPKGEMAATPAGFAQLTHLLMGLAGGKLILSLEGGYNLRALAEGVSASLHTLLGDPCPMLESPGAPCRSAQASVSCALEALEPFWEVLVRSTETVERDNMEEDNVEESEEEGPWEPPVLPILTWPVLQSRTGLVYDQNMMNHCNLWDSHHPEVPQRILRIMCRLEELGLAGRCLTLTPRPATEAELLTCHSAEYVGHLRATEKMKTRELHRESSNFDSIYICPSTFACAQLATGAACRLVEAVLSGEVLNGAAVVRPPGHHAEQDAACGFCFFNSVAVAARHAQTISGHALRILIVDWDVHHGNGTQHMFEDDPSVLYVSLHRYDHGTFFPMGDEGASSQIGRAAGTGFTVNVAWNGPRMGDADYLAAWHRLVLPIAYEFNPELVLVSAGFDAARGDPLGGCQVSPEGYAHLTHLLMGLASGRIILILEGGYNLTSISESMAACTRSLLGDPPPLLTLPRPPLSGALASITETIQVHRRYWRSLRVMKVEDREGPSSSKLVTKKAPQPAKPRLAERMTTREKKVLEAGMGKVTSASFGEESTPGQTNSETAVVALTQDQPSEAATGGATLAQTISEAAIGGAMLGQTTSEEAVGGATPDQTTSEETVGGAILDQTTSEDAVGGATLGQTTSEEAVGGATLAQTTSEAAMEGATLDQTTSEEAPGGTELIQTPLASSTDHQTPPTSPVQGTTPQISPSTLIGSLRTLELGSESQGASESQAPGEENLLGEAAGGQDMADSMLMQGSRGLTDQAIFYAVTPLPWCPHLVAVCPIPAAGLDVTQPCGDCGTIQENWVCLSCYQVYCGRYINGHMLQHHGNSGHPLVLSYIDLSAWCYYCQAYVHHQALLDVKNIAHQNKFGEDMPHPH

Mus musculus [3] = assay: Anti-pulmonary fibrosis activity in bleomycin-induced C57BL/6 mouse model of pulmonary fibrosis assessed as decrease in thickening of the alveolar wall in lung at 50 to 100 mg/kg, ip for 3 weeks by H and E staining based fluorescence microscopic analysis; format: functional, organism-based; conditions: dose 50-100 mg/kg
[4] = Intrinsic clearance in human liver microsomes at 100 uM incubated upto 60 mins by LC-MS/MS analysis; format: ADME, Microsome; conditions: read-out: CLH
[5] = Half life in human plasma at 2 uM by LC-MS/MS analysis; format: ADME, cell-free
Mus musculus [6] = assay: Anti-pulmonary fibrosis activity in bleomycin-induced ip dosed C57BL/6 mouse model of pulmonary fibrosis assessed as inhibition of Smad2 protein phosphorylation level in lung for 3 weeks by immunohistochemical analysis; format: functional, organism-based; conditions: dose 50-100 mg/kg
[7] = biological target: Mothers against decapentaplegic homolog 3 (Homo sapiens) (UniProt P84022); assay: Inhibition of TGF-beta1-induced Smad3 protein phosphorylation level in HELF cells incubated for 48 hrs by Western blot analysis; format: cell-based; conditions: dose 2.5-10 µM
[8] = biological target: T3, Protein deacetylase HDAC6 (Homo sapiens) (UniProt Q9UBN7); assay: Inhibition of HDAC6 in TGF-beta1-induced HELF cells assessed as upregulation of acetylated histone H3 level at 2.5 to 10 uM by Western blot analysis; format: cell-based; conditions: dose 2.5-10 µM
T3 sequence (whole entry): T2 sequence (Q9UBN7 whole entry)

Mus musculus [9] = assay: Anti-pulmonary fibrosis activity in bleomycin-induced C57BL/6 mouse model of pulmonary fibrosis assessed as decrease in disturbance of alveolar structure in lung at 50 to 100 mg/kg, ip for 3 weeks by H and E staining based fluorescence microscopic analysis; format: functional, organism-based; conditions: dose 50-100 mg/kg
Homo sapiens = organism: Homo sapiens; assay: Selectivity index, ratio IC50 for C-terminal His6/Flag-tagged recombinant human full length HDAC1 to IC50 for inhibition of recombinant human full length HDAC6
Mus musculus [10] = assay: Anti-pulmonary fibrosis activity in bleomycin-induced C57BL/6 mouse model of pulmonary fibrosis assessed as decrease in collagen fiber deposition in lung at 50 to 100 mg/kg, ip for 3 weeks by Masson trichrome staining based microscopic analysis; format: functional, organism-based; conditions: dose 50-100 mg/kg
[11] = Cytotoxicity against HELF cells assessed as reduction in viability at 1 to 300 uM after 48 hrs under without FBS condition by MTT assay; format: toxicity, cell-based; conditions: human, dose 1-300 µM

Chain of Mothers against decapentaplegic homolog 3 (Homo sapiens) (P84022 2-425 limits assumed): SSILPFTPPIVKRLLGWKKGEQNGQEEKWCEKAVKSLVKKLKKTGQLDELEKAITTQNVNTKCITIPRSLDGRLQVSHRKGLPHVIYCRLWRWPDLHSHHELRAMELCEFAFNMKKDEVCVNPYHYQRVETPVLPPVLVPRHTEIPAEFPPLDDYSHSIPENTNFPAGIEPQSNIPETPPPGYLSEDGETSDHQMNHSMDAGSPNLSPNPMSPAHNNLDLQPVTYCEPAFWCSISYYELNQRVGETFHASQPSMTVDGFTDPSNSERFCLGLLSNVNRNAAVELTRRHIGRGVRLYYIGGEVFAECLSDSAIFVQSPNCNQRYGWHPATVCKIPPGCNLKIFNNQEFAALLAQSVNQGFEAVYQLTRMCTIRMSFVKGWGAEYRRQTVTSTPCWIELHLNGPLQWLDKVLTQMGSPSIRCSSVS

- IC50 (Histone deacetylase 11): > 50000 nM
- IC50 [2]: 8.97 nM
- microsomal CLint at 100 µM [4]: < 9.6 µL/min/mg
- half-life at 2 µM [5]: > 4.82 h
- inhibition [7]: Dose-Dependent Effect
- inhibition [8]: inactive
- Ratio IC50 (Homo sapiens): 97.9
SMILES: CC(=O)O.O=C(NO)c1ccc(CN2C(=O)[C@@H]3CCCN3Cc3ccccc32)cc1
- Activity (HELF): Dose-Dependent Effect
- Activity (Mus musculus [1]): inactive
- Activity (Mus musculus [3]): inactive
- inhibition (Mus musculus [6]): Dose-Dependent Effect
- Activity (Mus musculus [9]): Active
- Activity (Mus musculus [10]): Active
- Activity [11]: Toxic
